How the values were obtained:
Test in all cases: Eurofins kinase selectivity profile against 380 other human recombinant kinases (Table S2)
Type in all cases: biochemical
[1] = target: T1, 380 human recombinant protein kinases (Homo sapiens, UniProt P54760); conditions: EphB4(h), read-out: Inhibition rate
T1 construct: purchased Eurofins (Celle Lévescault)
T1 sequence (P54760 16-987): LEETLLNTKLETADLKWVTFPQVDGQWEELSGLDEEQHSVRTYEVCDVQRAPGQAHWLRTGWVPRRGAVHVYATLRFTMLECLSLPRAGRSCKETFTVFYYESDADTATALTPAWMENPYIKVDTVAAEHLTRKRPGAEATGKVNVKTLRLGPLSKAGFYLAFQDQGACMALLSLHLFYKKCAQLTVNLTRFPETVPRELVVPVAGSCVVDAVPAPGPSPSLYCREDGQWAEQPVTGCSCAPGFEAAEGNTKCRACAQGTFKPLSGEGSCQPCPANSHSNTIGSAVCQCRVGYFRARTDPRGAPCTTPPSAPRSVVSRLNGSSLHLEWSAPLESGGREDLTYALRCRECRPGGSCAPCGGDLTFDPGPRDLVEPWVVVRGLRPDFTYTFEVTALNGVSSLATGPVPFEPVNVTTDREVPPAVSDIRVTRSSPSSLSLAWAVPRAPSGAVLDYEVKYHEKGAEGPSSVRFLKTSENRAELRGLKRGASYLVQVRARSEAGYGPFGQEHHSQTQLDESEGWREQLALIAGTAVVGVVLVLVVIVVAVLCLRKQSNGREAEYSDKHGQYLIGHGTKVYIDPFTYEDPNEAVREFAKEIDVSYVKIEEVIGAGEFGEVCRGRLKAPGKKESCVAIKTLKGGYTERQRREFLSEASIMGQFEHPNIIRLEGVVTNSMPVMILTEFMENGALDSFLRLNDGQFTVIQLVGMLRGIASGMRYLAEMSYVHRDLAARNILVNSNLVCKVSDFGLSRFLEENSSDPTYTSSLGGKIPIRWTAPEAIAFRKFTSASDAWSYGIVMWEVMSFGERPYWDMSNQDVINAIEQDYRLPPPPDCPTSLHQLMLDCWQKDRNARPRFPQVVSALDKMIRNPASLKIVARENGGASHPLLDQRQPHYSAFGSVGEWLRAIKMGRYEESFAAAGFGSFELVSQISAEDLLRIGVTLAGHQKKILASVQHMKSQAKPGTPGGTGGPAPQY
Procedure, shortened: (§1)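 Outsourced panel: 380 human recombinant kinases; inhibitor tested at various concentrations; purpose: MK2 selectivity check.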

[2] = target: T2, 380 human recombinant protein kinases (Homo sapiens, UniProt Q9UPZ9); conditions: ICK(h), read-out: Inhibition rate
T2 construct: purchased Eurofins (Celle Lévescault)
T2 sequence (Q9UPZ9 1-632): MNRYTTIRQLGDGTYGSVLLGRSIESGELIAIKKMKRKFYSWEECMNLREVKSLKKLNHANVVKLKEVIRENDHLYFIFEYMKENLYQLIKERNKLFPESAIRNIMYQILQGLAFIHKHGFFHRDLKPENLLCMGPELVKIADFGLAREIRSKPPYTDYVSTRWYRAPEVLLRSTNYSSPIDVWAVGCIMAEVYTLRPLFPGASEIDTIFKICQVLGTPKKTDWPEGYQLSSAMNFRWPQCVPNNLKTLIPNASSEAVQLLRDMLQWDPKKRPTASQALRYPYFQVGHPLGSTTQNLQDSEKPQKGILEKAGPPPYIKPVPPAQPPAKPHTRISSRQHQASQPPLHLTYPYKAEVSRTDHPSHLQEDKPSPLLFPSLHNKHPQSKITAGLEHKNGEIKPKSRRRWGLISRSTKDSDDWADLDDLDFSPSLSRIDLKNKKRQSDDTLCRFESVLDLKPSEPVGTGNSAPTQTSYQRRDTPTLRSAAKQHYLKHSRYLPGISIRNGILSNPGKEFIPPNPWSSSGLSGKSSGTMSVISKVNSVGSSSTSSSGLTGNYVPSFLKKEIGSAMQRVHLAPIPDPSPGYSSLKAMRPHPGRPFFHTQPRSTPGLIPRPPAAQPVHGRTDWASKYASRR
Procedure, shortened: as §1

[3] = target: T3, 380 human recombinant protein kinases (Homo sapiens, UniProt Q9UIK4); conditions: DAPK2(h), read-out: Inhibition rate
T3 construct: purchased Eurofins (Celle Lévescault)
Procedure, shortened: as §1

T3 sequence (Q9UIK4 whole entry): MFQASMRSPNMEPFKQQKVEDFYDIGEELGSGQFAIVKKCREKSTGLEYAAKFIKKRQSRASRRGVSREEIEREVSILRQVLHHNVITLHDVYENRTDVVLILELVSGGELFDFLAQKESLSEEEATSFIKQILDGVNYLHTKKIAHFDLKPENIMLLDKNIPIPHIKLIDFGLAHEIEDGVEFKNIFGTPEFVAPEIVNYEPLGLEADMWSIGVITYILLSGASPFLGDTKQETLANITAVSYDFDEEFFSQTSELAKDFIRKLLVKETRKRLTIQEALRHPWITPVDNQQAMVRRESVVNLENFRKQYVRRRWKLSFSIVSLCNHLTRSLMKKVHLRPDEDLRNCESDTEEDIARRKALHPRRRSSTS

C=CC(=O)Nc1cc(-c2cc(-c3cc4c([nH]3)CCNC4=O)ccn2)ccc1OC(F)(F)F [compound 11]
inhibition at 0.01 µM ([1]; 10 nM): -4%
inhibition at 0.1 µM ([1]; 100 nM): -15%
inhibition at 1 µM ([1]; 1000 nM): -4%
inhibition at 0.01 µM ([2]; 10 nM): 3%
inhibition at 0.1 µM ([2]; 100 nM): 18%
inhibition at 1 µM ([2]; 1000 nM): 8%
inhibition at 0.01 µM ([3]; 10 nM): 8%
inhibition at 0.1 µM ([3]; 100 nM): 3%
inhibition at 1 µM ([3]; 1000 nM): 13%

— PMC11233931, “Remodeling tumor‐associated macrophage for anti‐cancer effects by rational design of irreversible inhibition of mitogen‐activated protein kinase‐activated protein kinase 2” (MedComm, 2024)
